Experimental data as given in the kinase profiling compilation of Christmann-Franck et al. (2016).

Assays:
Assay in all cases: KINOMEscan competition binding
Details in all cases: compound 10.0 µM
[1] = biological target: ACVR1B (human) (UniProt P36896)
[2] = biological target: RPS6KA5 KD1 (human) (UniProt O75582)
[3] = biological target: NEK5 (human) (UniProt Q6P3R8)
[4] = biological target: SYK (human) (UniProt P43405)
[5] = biological target: CDK19 (human) (UniProt Q9BWU1)
[6] = biological target: CHUK (human) (UniProt O15111)
[7] = biological target: MAP2K3 (human) (UniProt P46734)
[8] = biological target: PRKD2 (human) (UniProt Q9BZL6)
[9] = biological target: STK17B (human) (UniProt O94768)
[10] = biological target: FYN (human) (UniProt P06241)
[11] = biological target: MAP3K3 (human) (UniProt Q99759)
[12] = biological target: GSK3A (human) (UniProt P49840)
[13] = biological target: CLK2 (human) (UniProt P49760)
[14] = biological target: PAK2 (human) (UniProt Q13177)
[15] = biological target: MAPK11 (human) (UniProt Q15759)
[16] = biological target: IKBKE (human) (UniProt Q14164)
[17] = biological target: TYK2 JH2 pseudokinase (human) (UniProt P29597)
[18] = biological target: YES1 (human) (UniProt P07947)
[19] = biological target: EPHA4 (human) (UniProt P54764)
[20] = biological target: TESK1 (human) (UniProt Q15569)
[21] = biological target: ACVR2B (human) (UniProt Q13705)
[22] = biological target: EPHA2 (human) (UniProt P29317)
[23] = biological target: MAPK3 (human) (UniProt P27361)
[24] = biological target: CHEK2 (human) (UniProt O96017)
[25] = biological target: STK36 (human) (UniProt Q9NRP7)
[26] = biological target: LTK (human) (UniProt P29376)
[27] = biological target: MAPK9 (human) (UniProt P45984)
[28] = biological target: PIP5K1A (human) (UniProt Q99755)
[29] = biological target: MARK2 (human) (UniProt Q7KZI7)
[30] = biological target: CDK3 (human) (UniProt Q00526)
[31] = biological target: KDR (human) (UniProt P35968)
[32] = biological target: SRPK2 (human) (UniProt P78362)
[33] = biological target: ALK (human) (UniProt Q9UM73)
[34] = biological target: MAP3K5 (human) (UniProt Q99683)
[35] = biological target: PRKX (human) (UniProt P51817)
[36] = biological target: SGK110 (human) (UniProt P0C264)
[37] = biological target: MAP2K1 (human) (UniProt Q02750)
[38] = biological target: ROCK2 (human) (UniProt O75116)
[39] = biological target: CAMKK2 (human) (UniProt Q96RR4)
[40] = biological target: SIK1 (human) (UniProt P57059)

YES1 (human), sequence (P07947 whole entry, looked up): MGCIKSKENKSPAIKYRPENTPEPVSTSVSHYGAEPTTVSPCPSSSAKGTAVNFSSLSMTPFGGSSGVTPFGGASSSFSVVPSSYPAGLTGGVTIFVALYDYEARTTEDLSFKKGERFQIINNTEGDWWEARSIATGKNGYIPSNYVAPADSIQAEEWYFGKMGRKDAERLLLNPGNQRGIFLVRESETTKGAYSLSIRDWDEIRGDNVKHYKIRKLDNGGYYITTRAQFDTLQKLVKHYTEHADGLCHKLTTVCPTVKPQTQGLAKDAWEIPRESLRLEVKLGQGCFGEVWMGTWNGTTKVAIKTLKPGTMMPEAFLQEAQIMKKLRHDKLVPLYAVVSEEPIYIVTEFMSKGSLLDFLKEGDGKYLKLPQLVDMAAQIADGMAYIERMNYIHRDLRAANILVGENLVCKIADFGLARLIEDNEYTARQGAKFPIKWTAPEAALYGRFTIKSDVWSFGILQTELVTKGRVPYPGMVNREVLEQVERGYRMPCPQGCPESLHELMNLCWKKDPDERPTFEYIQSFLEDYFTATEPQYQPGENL
CHEK2 (human), sequence (O96017 whole entry, looked up): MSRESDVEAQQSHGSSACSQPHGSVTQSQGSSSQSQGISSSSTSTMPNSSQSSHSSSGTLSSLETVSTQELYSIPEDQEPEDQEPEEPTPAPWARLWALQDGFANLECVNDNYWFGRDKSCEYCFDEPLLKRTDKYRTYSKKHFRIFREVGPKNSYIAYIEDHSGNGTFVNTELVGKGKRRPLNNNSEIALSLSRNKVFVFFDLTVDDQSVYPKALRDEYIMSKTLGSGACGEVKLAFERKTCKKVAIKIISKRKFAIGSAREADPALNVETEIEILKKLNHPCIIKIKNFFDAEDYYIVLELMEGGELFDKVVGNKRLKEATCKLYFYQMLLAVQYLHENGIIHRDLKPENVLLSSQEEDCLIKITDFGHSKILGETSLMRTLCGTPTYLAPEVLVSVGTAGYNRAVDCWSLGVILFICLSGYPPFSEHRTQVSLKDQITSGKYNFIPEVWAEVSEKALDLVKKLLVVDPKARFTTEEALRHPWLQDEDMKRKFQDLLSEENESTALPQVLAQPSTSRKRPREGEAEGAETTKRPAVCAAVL
MAPK11 (human), sequence (Q15759 whole entry, looked up): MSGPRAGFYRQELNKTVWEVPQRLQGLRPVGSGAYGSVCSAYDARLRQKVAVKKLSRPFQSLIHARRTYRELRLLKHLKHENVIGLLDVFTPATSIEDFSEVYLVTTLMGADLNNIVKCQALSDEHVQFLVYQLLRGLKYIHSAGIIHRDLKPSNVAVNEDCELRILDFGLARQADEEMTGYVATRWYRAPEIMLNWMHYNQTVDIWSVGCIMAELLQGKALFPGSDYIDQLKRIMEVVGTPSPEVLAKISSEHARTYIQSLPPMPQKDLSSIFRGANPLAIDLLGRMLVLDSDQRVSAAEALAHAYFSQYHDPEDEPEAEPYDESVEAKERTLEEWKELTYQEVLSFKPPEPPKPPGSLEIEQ
CDK19 (human), sequence (Q9BWU1 whole entry, looked up): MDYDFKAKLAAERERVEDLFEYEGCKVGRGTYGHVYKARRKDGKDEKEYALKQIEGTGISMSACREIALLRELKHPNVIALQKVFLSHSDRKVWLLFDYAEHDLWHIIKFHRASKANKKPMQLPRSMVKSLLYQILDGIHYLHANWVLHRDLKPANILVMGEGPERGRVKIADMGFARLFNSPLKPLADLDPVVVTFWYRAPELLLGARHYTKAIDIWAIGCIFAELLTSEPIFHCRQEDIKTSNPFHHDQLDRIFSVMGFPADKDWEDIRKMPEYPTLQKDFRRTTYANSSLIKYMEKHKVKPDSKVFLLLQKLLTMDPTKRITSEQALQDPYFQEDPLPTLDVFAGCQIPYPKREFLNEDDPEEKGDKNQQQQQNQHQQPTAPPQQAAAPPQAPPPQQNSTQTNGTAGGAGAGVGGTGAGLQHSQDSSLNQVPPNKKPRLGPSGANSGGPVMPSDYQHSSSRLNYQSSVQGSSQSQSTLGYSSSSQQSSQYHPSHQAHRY
SRPK2 (human), sequence (P78362 whole entry, looked up): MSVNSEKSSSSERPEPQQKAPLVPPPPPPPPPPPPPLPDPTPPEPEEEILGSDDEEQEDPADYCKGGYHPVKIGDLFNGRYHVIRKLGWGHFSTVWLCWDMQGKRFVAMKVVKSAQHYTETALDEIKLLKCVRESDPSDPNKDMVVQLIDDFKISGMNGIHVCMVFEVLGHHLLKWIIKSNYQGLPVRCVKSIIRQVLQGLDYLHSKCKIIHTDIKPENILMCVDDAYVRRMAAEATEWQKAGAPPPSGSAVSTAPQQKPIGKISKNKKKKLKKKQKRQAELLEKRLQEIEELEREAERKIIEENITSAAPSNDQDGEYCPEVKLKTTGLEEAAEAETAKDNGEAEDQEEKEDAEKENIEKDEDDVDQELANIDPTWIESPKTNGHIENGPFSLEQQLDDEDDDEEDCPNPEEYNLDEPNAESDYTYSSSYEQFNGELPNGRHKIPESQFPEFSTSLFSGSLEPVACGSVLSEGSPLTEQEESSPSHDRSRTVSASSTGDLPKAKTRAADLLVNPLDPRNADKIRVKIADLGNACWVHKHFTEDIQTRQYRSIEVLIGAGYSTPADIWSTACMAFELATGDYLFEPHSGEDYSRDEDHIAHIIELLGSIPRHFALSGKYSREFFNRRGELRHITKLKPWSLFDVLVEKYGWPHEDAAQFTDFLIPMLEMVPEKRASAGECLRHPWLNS
MAP2K1 (human), sequence (Q02750 whole entry, looked up): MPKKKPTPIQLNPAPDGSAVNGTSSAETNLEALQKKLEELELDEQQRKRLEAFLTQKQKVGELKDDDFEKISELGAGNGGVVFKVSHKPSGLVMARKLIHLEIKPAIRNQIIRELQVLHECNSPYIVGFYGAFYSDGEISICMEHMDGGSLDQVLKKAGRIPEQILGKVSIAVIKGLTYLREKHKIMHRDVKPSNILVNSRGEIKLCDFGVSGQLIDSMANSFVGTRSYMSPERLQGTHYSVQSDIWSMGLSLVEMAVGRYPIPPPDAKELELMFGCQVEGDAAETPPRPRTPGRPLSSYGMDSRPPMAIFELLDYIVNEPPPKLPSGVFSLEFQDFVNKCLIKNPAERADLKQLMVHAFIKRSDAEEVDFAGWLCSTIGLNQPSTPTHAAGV
PIP5K1A (human), sequence (Q99755 whole entry, looked up): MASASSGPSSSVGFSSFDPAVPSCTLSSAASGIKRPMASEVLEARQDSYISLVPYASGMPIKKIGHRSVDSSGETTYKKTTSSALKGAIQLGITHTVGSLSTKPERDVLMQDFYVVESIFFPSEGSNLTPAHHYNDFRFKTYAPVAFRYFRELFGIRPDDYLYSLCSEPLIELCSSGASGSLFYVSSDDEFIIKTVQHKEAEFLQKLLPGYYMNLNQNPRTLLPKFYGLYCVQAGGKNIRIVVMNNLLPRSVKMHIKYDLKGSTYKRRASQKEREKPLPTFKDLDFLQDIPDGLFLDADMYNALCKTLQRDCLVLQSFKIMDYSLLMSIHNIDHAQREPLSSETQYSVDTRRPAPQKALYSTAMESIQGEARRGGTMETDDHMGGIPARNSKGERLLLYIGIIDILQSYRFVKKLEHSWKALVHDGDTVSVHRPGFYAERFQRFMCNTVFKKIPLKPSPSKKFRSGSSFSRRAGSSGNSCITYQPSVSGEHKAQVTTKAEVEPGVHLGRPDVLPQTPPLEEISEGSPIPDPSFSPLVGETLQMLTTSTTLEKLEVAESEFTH
ACVR2B (human), sequence (Q13705 whole entry, looked up): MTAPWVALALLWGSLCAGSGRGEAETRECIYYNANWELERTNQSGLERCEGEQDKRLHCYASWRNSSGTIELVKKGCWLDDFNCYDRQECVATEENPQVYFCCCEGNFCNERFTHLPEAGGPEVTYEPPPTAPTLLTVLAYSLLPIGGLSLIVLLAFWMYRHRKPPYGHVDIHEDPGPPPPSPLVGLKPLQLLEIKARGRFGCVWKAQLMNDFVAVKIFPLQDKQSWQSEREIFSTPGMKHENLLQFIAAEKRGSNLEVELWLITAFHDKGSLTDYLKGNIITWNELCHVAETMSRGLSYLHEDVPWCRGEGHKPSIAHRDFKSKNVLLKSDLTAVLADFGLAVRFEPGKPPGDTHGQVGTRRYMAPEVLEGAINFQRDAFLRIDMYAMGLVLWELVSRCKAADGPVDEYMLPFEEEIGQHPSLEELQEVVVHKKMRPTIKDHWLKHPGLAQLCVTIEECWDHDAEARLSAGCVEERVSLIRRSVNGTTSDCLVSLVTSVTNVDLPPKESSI
TESK1 (human), sequence (Q15569 whole entry, looked up): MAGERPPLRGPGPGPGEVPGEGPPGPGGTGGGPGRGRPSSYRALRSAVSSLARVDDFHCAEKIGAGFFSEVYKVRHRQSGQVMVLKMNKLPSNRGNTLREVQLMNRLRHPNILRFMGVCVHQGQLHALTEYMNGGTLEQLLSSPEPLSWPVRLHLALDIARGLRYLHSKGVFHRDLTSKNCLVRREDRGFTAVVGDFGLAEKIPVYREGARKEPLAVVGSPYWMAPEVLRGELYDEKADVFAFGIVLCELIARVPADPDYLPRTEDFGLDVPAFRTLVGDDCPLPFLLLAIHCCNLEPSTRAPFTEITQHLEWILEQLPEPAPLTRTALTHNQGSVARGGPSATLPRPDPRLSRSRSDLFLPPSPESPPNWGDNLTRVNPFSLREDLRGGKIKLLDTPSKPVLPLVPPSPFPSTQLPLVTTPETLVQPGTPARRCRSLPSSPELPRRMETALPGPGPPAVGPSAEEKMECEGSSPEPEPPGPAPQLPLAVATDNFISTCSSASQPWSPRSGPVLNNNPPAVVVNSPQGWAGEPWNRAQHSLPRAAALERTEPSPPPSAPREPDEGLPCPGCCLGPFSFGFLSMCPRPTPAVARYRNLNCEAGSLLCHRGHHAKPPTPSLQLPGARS

Compound	kinase still bound, per cent of control [1] [%]	kinase still bound, per cent of control [2] [%]	kinase still bound, per cent of control [3] [%]	kinase still bound, per cent of control [4] [%]	kinase still bound, per cent of control [5] [%]	kinase still bound, per cent of control [6] [%]	kinase still bound, per cent of control [7] [%]	kinase still bound, per cent of control [8] [%]	kinase still bound, per cent of control [9] [%]	kinase still bound, per cent of control [10] [%]	kinase still bound, per cent of control [11] [%]	kinase still bound, per cent of control [12] [%]	kinase still bound, per cent of control [13] [%]	kinase still bound, per cent of control [14] [%]	kinase still bound, per cent of control [15] [%]	kinase still bound, per cent of control [16] [%]	kinase still bound, per cent of control [17] [%]	kinase still bound, per cent of control [18] [%]	kinase still bound, per cent of control [19] [%]	kinase still bound, per cent of control [20] [%]	other results
C=CC(=O)Nc1cccc(Oc2nc(Nc3ccc(N4CCN(C)CC4)cc3OC)ncc2Cl)c1	100	100	100	100	100	100	100	15	100	100	100	100	100	100	100	100	100	100	100	100	kinase still bound, per cent of control [21]: 100%; kinase still bound, per cent of control [22]: 100%; kinase still bound, per cent of control [23]: 100%; kinase still bound, per cent of control [24]: 8.8%; kinase still bound, per cent of control [25]: 100%; kinase still bound, per cent of control [26]: 3.6%; kinase still bound, per cent of control [27]: 100%; kinase still bound, per cent of control [28]: 11%; kinase still bound, per cent of control [29]: 100%; kinase still bound, per cent of control [30]: 100%; kinase still bound, per cent of control [31]: 100%; kinase still bound, per cent of control [32]: 100%; kinase still bound, per cent of control [33]: 0.7%; kinase still bound, per cent of control [34]: 100%; kinase still bound, per cent of control [35]: 100%; kinase still bound, per cent of control [36]: 100%; kinase still bound, per cent of control [37]: 100%; kinase still bound, per cent of control [38]: 27%; kinase still bound, per cent of control [39]: 10%; kinase still bound, per cent of control [40]: 100%
Cc1ccc(C(=O)Nc2cccc(C(F)(F)F)c2)cc1Nc1cncc(C(N)=O)c1	100	100	100	100	25	100	100	100	100	100	100	100	100	100	100	100	100	100	6.8	100	kinase still bound, per cent of control [21]: 100%; kinase still bound, per cent of control [22]: 2.2%; kinase still bound, per cent of control [23]: 100%; kinase still bound, per cent of control [24]: 100%; kinase still bound, per cent of control [25]: 100%; kinase still bound, per cent of control [26]: 100%; kinase still bound, per cent of control [27]: 100%; kinase still bound, per cent of control [28]: 100%; kinase still bound, per cent of control [29]: 100%; kinase still bound, per cent of control [30]: 100%; kinase still bound, per cent of control [31]: 100%; kinase still bound, per cent of control [32]: 100%; kinase still bound, per cent of control [33]: 100%; kinase still bound, per cent of control [34]: 100%; kinase still bound, per cent of control [35]: 100%; kinase still bound, per cent of control [36]: 100%; kinase still bound, per cent of control [37]: 100%; kinase still bound, per cent of control [38]: 100%; kinase still bound, per cent of control [39]: 100%; kinase still bound, per cent of control [40]: 100%
